Experiments:
PI3K-alpha = biological target: T1, PI3K-alpha (Homo sapiens, UniProt P42336); test: HTRF PI3K biochemical assay, alpha isoform; conditions: ratio PI3K-alpha IC50 value / PI3K-delta IC50 value
T1 construct: purchased Upstate; Millipore 14-602

PI3K-delta = biological target: T2, PI3K-delta (Homo sapiens, UniProt O00329); test: HTRF PI3K biochemical assay, delta isoform; conditions: form screened (neutral or TFA salt) given, read-out: PI3Kdelta IC50
T2 construct: purchased Upstate; Millipore 14-604
T2 sequence (O00329 whole entry, canonical isoform): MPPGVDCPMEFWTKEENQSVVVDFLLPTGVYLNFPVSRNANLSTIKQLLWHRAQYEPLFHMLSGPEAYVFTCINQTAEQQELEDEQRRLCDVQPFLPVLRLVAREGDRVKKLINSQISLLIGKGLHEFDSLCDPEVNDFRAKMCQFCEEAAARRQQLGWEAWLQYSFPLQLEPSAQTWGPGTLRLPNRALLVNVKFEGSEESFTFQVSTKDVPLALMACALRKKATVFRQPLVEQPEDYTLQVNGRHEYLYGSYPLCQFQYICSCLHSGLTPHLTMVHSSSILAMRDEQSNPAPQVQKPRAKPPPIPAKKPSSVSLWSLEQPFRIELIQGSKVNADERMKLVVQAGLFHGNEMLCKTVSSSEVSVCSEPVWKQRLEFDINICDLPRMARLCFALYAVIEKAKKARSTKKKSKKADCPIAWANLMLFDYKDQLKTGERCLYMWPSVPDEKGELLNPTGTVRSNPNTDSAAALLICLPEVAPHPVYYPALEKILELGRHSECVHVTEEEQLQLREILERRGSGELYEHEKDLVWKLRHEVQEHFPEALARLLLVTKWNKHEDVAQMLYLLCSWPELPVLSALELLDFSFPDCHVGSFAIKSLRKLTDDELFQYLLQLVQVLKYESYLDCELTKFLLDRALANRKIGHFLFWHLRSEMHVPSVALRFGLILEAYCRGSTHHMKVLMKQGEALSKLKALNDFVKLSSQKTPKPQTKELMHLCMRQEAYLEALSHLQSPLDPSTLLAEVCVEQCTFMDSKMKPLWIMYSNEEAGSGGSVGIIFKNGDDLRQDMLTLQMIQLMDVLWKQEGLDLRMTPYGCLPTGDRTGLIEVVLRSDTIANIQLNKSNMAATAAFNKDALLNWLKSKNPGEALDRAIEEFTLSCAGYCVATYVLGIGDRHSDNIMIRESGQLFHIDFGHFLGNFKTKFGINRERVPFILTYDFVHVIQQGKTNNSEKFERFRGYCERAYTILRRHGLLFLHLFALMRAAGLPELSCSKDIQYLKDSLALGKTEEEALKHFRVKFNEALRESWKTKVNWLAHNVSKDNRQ
T2 sequence (P27986 whole entry partner, canonical isoform): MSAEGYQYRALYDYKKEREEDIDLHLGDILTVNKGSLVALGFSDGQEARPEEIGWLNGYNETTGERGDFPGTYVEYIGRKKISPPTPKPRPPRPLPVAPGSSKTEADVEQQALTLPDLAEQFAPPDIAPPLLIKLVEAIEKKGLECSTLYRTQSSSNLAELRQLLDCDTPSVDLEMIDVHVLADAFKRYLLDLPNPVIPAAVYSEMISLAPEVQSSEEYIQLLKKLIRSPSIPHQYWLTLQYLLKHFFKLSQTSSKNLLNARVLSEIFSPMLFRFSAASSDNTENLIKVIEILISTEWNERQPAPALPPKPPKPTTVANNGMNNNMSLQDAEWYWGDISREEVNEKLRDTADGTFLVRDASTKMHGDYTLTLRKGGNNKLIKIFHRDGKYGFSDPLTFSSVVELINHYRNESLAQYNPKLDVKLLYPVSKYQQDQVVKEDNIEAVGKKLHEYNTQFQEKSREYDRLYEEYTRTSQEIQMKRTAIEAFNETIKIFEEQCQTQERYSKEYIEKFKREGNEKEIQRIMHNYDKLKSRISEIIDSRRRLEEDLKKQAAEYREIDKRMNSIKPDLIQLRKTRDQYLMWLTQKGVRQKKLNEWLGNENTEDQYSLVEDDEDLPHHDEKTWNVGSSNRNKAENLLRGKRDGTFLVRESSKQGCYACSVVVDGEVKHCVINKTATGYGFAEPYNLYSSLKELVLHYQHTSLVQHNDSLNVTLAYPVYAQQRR

T1 sequence (P42336 whole entry, canonical isoform): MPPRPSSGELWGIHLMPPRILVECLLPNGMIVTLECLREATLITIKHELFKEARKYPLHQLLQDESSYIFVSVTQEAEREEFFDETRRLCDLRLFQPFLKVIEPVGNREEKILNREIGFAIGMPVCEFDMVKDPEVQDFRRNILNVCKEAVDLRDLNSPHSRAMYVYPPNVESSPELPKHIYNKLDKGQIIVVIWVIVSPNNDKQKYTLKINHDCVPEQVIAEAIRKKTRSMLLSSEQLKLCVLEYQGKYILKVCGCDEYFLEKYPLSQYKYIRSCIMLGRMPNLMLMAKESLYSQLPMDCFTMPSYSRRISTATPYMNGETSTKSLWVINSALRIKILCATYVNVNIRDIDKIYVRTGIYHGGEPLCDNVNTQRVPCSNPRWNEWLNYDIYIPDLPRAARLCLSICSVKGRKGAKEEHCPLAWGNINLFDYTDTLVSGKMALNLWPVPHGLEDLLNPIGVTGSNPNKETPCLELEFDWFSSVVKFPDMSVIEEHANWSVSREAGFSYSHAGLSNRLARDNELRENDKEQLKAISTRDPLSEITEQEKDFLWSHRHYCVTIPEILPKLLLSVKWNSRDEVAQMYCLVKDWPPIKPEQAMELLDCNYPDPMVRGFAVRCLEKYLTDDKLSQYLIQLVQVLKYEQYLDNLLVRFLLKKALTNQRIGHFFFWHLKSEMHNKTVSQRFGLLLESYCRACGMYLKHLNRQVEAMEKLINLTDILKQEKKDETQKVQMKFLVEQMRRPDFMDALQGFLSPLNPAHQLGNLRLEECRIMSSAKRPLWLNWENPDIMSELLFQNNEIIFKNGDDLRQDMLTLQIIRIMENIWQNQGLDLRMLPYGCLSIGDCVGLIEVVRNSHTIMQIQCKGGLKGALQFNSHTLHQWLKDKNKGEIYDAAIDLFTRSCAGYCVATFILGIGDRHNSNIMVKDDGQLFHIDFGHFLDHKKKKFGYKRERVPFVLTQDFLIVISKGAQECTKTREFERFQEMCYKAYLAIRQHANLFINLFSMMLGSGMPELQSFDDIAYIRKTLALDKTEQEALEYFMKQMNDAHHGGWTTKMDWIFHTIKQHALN
T1 sequence (P27986 whole entry partner, canonical isoform): as the sequence (P27986 whole entry partner, canonical isoform) above

Compound | Selectivity versus PI3Kalpha (PI3K-alpha) | IC50 (PI3K-delta)
CCn1c(-c2cnc(C)nc2)nc2c(NC3CN(C(=O)C4CC4)CC3C)ncnc21 (racemic) [Compound 3-16, N-[(3R,4R and 3S,4S)-1-(cyclopropylcarbonyl)-4-methylpyrrolidin-3-yl]-9-ethyl-8-(2-methylpyrimidin-5-yl)-9H-purin-6-amine] | >10 | 3.4 nM
CCn1c(-c2cnc(C)nc2)nc2c(NC3CN(C(=O)C4CC4)CC34CC4)ncnc21 (racemic) [Compound 3-17, (R and S)-N-[5-(cyclopropylcarbonyl)-5-azaspiro[2.4]hept-7-yl]-9-ethyl-8-(2-methylpyrimidin-5-yl)-9H-purin-6-amine] | >10 | < 1 nM
CCn1c(-c2cnc(C)nc2)nc2c(NC3(C)CCN(C(=O)C4CC4)C3)ncnc21 (racemic) [Compound 3-18, N-[(R and S)-1-(cyclopropylcarbonyl)-3-methylpyrrolidin-3-yl]-9-ethyl-8-(2-methylpyrimidin-5-yl)-9H-purin-6-amine] | >10 | 2.6 nM
CCC1CN(C(=O)C2CC2)CC1Nc1ncnc2c1nc(-c1cnc(C)nc1)n2CC (racemic) [Compound 3-19, N-[(3R,4S and 3S,4R)-1-(cyclopropylcarbonyl)-4-ethylpyrrolidin-3-yl]-9-ethyl-8-(2-methylpyrimidin-5-yl)-9H-purin-6-amine] | >10 | 3.8 nM
CCn1c(-c2cnc(C)nc2)nc2c(NC3CN(C(=O)C4CC4)CC3C(F)(F)F)ncnc21 (racemic) [Compound 3-22, N-[(3R,4S and 3S,4R)-1-(cyclopropylcarbonyl)-4-(trifluoromethyl)pyrrolidin-3-yl]-9-ethyl-8-(2-methylpyrimidin-5-yl)-9H-purin-6-amine] | >10 | 2.9 nM
CCn1c(-c2cnc(C)nc2)nc2c(NC3CN(C(=O)C4CC4)CC3F)ncnc21 (racemic) [Compound 3-26, N-[(3R,4S and 3S,4R)-1-(cyclopropylcarbonyl)-4-fluoropyrrolidin-3-yl]-9-ethyl-8-(2-methylpyrimidin-5-yl)-9H-purin-6-amine] | >10 | 34 nM
CCn1c(-c2cnc(C)nc2)nc2c(N[C@H]3CCN(C(=O)N4CCC4C)C3)ncnc21 (mixture of isomers) [Compound 12-3, 9-ethyl-N-{(3S)-1-[((S and R)-2-methylazetidin-1-yl)carbonyl]pyrrolidin-3-yl}-8-(2-methylpyrimidin-5-yl)-9H-purin-6-amine] | >10 | 1.6 nM
CCn1c(-c2cnc(C)nc2)nc2c(N[C@H]3CCN(C(=O)NCC4CCS(=O)(=O)C4)C3)ncnc21 (mixture of isomers) [Compound 12-20, (3S)-N-[((S and R)-1,1-dioxidotetrahydrothiophen-3-yl)methyl]-3-{[9-ethyl-8-(2-methylpyrimidin-5-yl)-9H-purin-6-yl]amino}pyrrolidine-1-carboxamide] | >10 | 9.4 nM
CCn1c(-c2cnc(C)nc2)nc2c(N[C@H]3CCN(C(=O)OC4CCS(=O)(=O)C4)C3)ncnc21 (mixture of isomers) [Compound 13-6, (S and R)-1,1-dioxidotetrahydrothiophen-3-yl (3S)-3-{[9-ethyl-8-(2-methylpyrimidin-5-yl)-9H-purin-6-yl]amino}pyrrolidine-l-carboxylate] | >10 | 4.6 nM
CCC(C)OC(=O)N1CC[C@H](Nc2ncnc3c2nc(-c2cnc(C)nc2)n3CC)C1 (mixture of isomers) [Compound 13-9, (S and R)-1-methylpropyl (3S)-3-{[9-ethyl-8-(2-methylpyrimidin-5-yl)-9H-purin-6-yl]amino}pyrrolidine-1-carboxylate] | >10 | 3.5 nM
CCCN1CC(Nc2ncnc3c2nc(-c2cnn(CC)c2C)n3C)CC1=O (racemic) [Compound 14-1, 4(S and R)-{[8-(1-ethyl-5-methyl-1H-pyrazol-4-yl)-9-methyl-9H-purin-6-yl]amino}-1-propylpyrrolidin-2-one] | >10 | 11 nM
C=C(C)CN1CC(Nc2ncnc3c2nc(-c2cnn(CC)c2C)n3C)CC1=O (racemic) [Compound 14-2, 4(S and R)-{[8-(1-ethyl-5-methyl-1H-pyrazol-4-yl)-9-methyl-9H-purin-6-yl]amino}-1-(2-methylprop-2-en-1-yl)pyrrolidin-2-one] | >10 | 10 nM
CCn1ncc(-c2nc3c(NC4CC(=O)N(CC(C)C)C4)ncnc3n2C)c1C (racemic) [Compound 14-3, 4(S and R)-{[8-(1-ethyl-5-methyl-1H-pyrazol-4-yl)-9-methyl-9H-purin-6-yl}amino}-1-(2-methylpropyl)pyrrolidin-2-one] | >10 | 5.4 nM
CCCN1CC(Nc2ncnc3c2nc(-c2cnc(C)nc2)n3CC)CC1=O (racemic) [Compound 14-4, 4(S and R)-{[9-ethyl-8-(2-methylpyrimidin-5-yl)-9H-purin-6-yl]amino}-1-propylpyrrolidin-2-one] | >10 | 24 nM
CCCN1CC(Nc2ncnc3c2nc(-c2cnc(C)nc2)n3CC)CCC1=O (racemic) [Compound 14-5, 5(S and R)-{[9-ethyl-8-(2-methylpyrimidin-5-yl)-9H-purin-6-yl]amino}-1-propylpiperidin-2-one] | >10 | 21 nM
CCn1c(-c2cnc(C)nc2)nc2c(NC3CN(C(=O)C4CC4)CC3(F)F)ncnc21 (single isomer, unassigned) [Compound 2-26, N-[(3S or 3R)-1-(cyclopropylcarbonyl)-4,4-difluoropyrrolidin-3-yl]-9-ethyl-8-(2-methylpyrimidin-5-yl)-9H-purin-6-amine] | >10 | 10 nM
CCn1c(-c2cnc(C)nc2)nc2c(N[C@H]3CCN(C(=O)C4CCCO4)C3)ncnc21 (single isomer, unassigned) [Compound 2-32, 9-ethyl-8-(2-methylpyrimidin-5-yl)-N-[(3S)-1-((S or R)-tetrahydrofuran-2-ylcarbonyl)pyrrolidin-3-yl]-9H-purin-6-amine] | >10 | 3.1 nM
CCn1c(-c2cnc(C)nc2)nc2c(N[C@H]3CCN(C(=O)C4CC45CCCC5)C3)ncnc21 (single isomer, unassigned) [Compound 2-34, 9-ethyl-8-(2-methylpyrimidin-5-yl)-N-[(3S)-1-((R or S)-spiro[2.4]hept-1-ylcarbonyl)pyrrolidin-3-yl]-9H-purin-6-amine] | >10 | 11 nM
CCn1c(-c2cnc(C)nc2)nc2c(N[C@H]3CCN(C(=O)C4CC45CCCC5)C3)ncnc21 (single isomer, unassigned) [Compound 2-35, 9-ethyl-8-(2-methylpyrimidin-5-yl)-N-[(3S)-1-((R or S)-spiro[2.4]hept-1-ylcarbonyl)pyrrolidin-3-yl]-9H-purin-6-amine] | >10 | < 1 nM
CCn1c(-c2cnc(C)nc2)nc2c(NC3CN(C(=O)C4CC4)CC3C)ncnc21 (single isomer, unassigned) [Compound 2-87, N-[(3S,4R or 3R,4S)-1-(cyclopropylcarbonyl)-4-methylpyrrolidin-3-yl]-9-ethyl-8-(2-methylpyrimidin-5-yl)-9H-purin-6-amine] | >10 | 1.7 nM
CCn1c(-c2cnc(C)nc2)nc2c(NC3CN(C(=O)C4CC45CCCCC5)CC3C)ncnc21 (single isomer, unassigned) [Compound 2-88, 9-ethyl-8-(2-methylpyrimidin-5-yl)-N-[(3S,4R or 3R,4S)-4-methyl-1-((S and R)-spiro[2.5]oct-1-ylcarbonyl)pyrrolidin-3-yl]-9H-purin-6-amine] | >10 | < 1 nM
CCn1c(-c2cnc(C)nc2)nc2c(NC3CN(C(=O)c4cocn4)CC3C)ncnc21 (single isomer, unassigned) [Compound 2-89, 9-ethyl-N-[-{(3S,4R or 3R,4S)-4-methyl-1-(1,3-oxazol-4-ylcarbonyl)pyrrolidin-3-yl]-8-(2-methylpyrimidin-5-yl)-9H-purin-6-amine] | >10 | 3.9 nM
CCn1c(-c2cnc(C)nc2)nc2c(NC3CN(C(=O)C4CC4)CC3O)ncnc21 (single isomer, unassigned) [Compound 2-97, 1-(cyclopropylcarbonyl)-4-{(3R,4R) or (3S,4S)-[9-ethyl-8-(2-methylpyrimidin-5-yl)-9H-purin-6-yl]amino}pyrrolidin-3-ol] | >10 | 2.9 nM
CCn1c(-c2ccc(C(F)(F)F)nc2)nc2c(N[C@H]3CCN(C(=O)C4CCOC4)C3)ncnc21 (single isomer, unassigned) [Compound 2-101, 9-ethyl-N-{(3S)-1-[(3R or 3S)-tetrahydrofuran-3-ylcarbonyl]pyrrolidin-3-yl}-8-[6-(trifluoromethyl)pyridin-3-yl]-9H-purin-6-amine] | >10 | < 1 nM
CCn1c(-c2ccc(C(F)(F)F)nc2)nc2c(N[C@H]3CCN(C(=O)C4CCCO4)C3)ncnc21 (single isomer, unassigned) [Compound 2-103, 9-ethyl-N-{(3S)-1-[(2S or 2R)-tetrahydrofuran-2-ylcarbonyl]pyrrolidin-3-yl}-8-[6-(trifluoromethyl)pyridin-3-yl]-9H-purin-6-amine] | >10 | 1.8 nM
CCn1c(-c2ccc(C(F)(F)F)nc2)nc2c(N[C@H]3CCN(C(=O)C4CCCO4)C3)ncnc21 (single isomer, unassigned) [Compound 2-104, 9-ethyl-N-{(3S)-1-[(2R or 2S)-tetrahydrofuran-2-ylcarbonyl]pyrrolidin-3-yl}-8-[6-(trifluoromethyl)pyridin-3-yl]-9H-purin-6-amine] | >10 | 3.4 nM
